Source: ChEMBL document CHEMBL2073742, “The rat canalicular conjugate export pump (Mrp2) is down-regulated in intrahepatic and obstructive cholestasis” (Gastroenterology, 1997)

Target: ATP-binding cassette sub-family C member 2 (Rattus norvegicus, UniProt Q63120)
Assay: TP_TRANSPORTER: Western in vivo, liver of SD rat
Type: functional, organism-based, Sprague-Dawley

Sequence of ATP-binding cassette sub-family C member 2 (Q63120 whole entry): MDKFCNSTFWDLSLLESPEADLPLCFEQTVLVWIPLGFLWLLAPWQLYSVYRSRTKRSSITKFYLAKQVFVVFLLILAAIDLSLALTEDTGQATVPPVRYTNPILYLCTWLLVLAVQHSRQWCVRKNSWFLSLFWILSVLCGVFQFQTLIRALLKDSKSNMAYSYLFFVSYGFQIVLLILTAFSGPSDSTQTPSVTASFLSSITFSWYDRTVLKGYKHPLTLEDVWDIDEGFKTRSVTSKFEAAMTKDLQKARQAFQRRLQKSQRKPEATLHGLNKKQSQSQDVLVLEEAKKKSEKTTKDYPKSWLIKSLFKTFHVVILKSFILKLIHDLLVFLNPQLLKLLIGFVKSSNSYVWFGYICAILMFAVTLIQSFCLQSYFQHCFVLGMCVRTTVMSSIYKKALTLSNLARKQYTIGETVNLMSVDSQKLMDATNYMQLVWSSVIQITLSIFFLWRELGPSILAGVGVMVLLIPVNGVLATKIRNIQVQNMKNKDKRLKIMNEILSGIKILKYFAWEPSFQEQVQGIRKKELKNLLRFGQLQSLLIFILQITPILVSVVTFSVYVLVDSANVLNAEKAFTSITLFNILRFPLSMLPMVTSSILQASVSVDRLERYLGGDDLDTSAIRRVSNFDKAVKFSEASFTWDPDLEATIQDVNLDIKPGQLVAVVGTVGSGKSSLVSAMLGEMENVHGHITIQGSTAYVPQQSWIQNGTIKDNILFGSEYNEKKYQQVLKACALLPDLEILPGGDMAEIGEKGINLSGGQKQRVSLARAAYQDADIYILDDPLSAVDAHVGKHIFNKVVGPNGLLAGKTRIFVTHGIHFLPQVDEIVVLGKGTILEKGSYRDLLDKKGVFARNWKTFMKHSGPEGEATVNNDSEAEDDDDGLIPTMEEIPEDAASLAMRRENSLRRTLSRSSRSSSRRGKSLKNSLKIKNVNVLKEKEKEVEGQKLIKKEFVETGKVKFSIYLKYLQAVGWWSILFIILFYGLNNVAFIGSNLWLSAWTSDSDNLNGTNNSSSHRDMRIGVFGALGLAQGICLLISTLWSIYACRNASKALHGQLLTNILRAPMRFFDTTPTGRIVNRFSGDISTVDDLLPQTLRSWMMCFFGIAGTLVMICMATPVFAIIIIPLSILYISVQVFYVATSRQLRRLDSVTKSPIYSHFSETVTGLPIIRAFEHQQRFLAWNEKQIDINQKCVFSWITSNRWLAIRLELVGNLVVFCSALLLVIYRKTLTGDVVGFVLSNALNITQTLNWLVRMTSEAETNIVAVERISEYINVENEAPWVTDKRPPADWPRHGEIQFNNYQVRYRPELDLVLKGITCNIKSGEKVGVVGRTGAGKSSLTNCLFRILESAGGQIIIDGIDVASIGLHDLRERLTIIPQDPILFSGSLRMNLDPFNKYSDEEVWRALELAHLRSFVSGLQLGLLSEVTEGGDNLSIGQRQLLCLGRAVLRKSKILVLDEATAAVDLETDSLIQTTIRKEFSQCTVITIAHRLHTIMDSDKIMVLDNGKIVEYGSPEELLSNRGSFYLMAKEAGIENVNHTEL

Activity: inducer [Decrease]
SMILES: C#C[C@]1(O)CC[C@H]2[C@@H]3CCc4cc(O)ccc4[C@H]3CC[C@@]21C [ETHINYL ESTRADIOL]
